Experimental data taken from ChEMBL document CHEMBL2406972, “Synthesis and antitumor activities of novel dibenzo[b,d]furan-imidazole hybrid compounds” (Eur J Med Chem, 2013).
pIC50: −log10 of the molar value.

How the values were obtained:
SMMC-7721 [1] = assay: Cytotoxicity against human SMMC7721 cells after 48 hrs by MTT assay; assay type: functional, cell-based; conditions: SMMC-7721, 48 h
SW480 = assay: Cytotoxicity against human SW480 cells after 48 hrs by MTT assay; assay type: functional, cell-based; conditions: SW480, 48 h
A549 = assay: Cytotoxicity against human A549 cells after 48 hrs by MTT assay; assay type: functional, cell-based; conditions: A549, 48 h
MCF7 = assay: Cytotoxicity against human MCF7 cells after 48 hrs by MTT assay; assay type: functional, cell-based; conditions: MCF7, 48 h
HL-60 = assay: Cytotoxicity against human HL60 cells after 48 hrs by MTT assay; assay type: functional, cell-based; conditions: HL-60, 48 h
SMMC-7721 [2] = assay: Cell cycle arrest in human SMMC7721 cells assessed as accumulation at G2/M phase at 6 uM after 24 hrs using PI staining by flow cytometry (reference value: 12.84%); assay type: functional
SMMC-7721 [3] = assay: Cell cycle arrest in human SMMC7721 cells assessed as accumulation at G1 phase after 24 hrs using PI staining by flow cytometry; assay type: functional, cell-based
SMMC-7721 [4] = assay: Cell cycle arrest in human SMMC7721 cells assessed as accumulation at G2/M phase at 3 uM after 24 hrs using PI staining by flow cytometry (reference value: 12.84%); assay type: functional
SMMC-7721 [5] = assay: Cell cycle arrest in human SMMC7721 cells assessed as accumulation at S phase at 6 uM after 24 hrs using PI staining by flow cytometry (reference value: 24.41%); assay type: functional
SMMC-7721 [6] = assay: Cell cycle arrest in human SMMC7721 cells assessed as accumulation at S phase at 3 uM after 24 hrs using PI staining by flow cytometry (reference value: 24.41%); assay type: functional
SMMC-7721 [7] = assay: Cell cycle arrest in human SMMC7721 cells assessed as accumulation at G1 phase at 6 uM after 24 hrs using PI staining by flow cytometry (reference value: 60.29%); assay type: functional
SMMC-7721 [8] = assay: Cell cycle arrest in human SMMC7721 cells assessed as accumulation at G1 phase at 3 uM after 24 hrs using PI staining by flow cytometry (reference value: 60.29%); assay type: functional
SMMC-7721 [9] = assay: Induction of apoptosis in human SMMC7721 cells at 9 uM after 48 hrs using by V-FITC/PI double-staining assay (reference value: 2.73 +/- 0.69%); assay type: functional
SMMC-7721 [10] = assay: Induction of apoptosis in human SMMC7721 cells at 3 uM after 48 hrs using by V-FITC/PI double-staining assay (reference value: 2.73 +/- 0.69%); assay type: functional
SMMC-7721 [11] = assay: Induction of apoptosis in human SMMC7721 cells at 6 uM after 48 hrs using by V-FITC/PI double-staining assay (reference value: 2.73 +/- 0.69%); assay type: functional
SMMC-7721 [12] = assay: Induction of apoptosis in human SMMC7721 cells assessed as early apoptotic cells at 9 uM after 48 hrs using by V-FITC/PI double-staining assay (reference value: 1.76%); assay type: functional
SMMC-7721 [13] = assay: Induction of apoptosis in human SMMC7721 cells assessed as late apoptotic cells at 9 uM after 48 hrs using by V-FITC/PI double-staining assay (reference value: 0.481%); assay type: functional
SMMC-7721 [14] = assay: Induction of apoptosis in human SMMC7721 cells assessed as viable cells at 9 uM after 48 hrs using by V-FITC/PI double-staining assay (reference value: 92.9%); assay type: functional; conditions: SMMC-7721, 48 h, read-out: Activity
SMMC-7721 [15] = assay: Induction of apoptosis in human SMMC7721 cells assessed as necrotic cells at 9 uM after 48 hrs using by V-FITC/PI double-staining assay (reference value: 4.90%); assay type: functional
SMMC-7721 [16] = assay: Induction of apoptosis in human SMMC7721 cells assessed as early apoptotic cells at 6 uM after 48 hrs using by V-FITC/PI double-staining assay (reference value: 1.76%); assay type: functional
SMMC-7721 [17] = assay: Induction of apoptosis in human SMMC7721 cells assessed as late apoptotic cells at 6 uM after 48 hrs using by V-FITC/PI double-staining assay (reference value: 0.481%); assay type: functional
SMMC-7721 [18] = assay: Induction of apoptosis in human SMMC7721 cells assessed as viable cells at 6 uM after 48 hrs using by V-FITC/PI double-staining assay (reference value: 92.9%); assay type: functional; conditions: SMMC-7721, 48 h, read-out: Activity
SMMC-7721 [19] = assay: Induction of apoptosis in human SMMC7721 cells assessed as necrotic cells at 6 uM after 48 hrs using by V-FITC/PI double-staining assay (reference value: 4.90%); assay type: functional
SMMC-7721 [20] = assay: Induction of apoptosis in human SMMC7721 cells assessed as early apoptotic cells at 3 uM after 48 hrs using by V-FITC/PI double-staining assay (reference value: 1.76%); assay type: functional
SMMC-7721 [21] = assay: Induction of apoptosis in human SMMC7721 cells assessed as late apoptotic cells at 3 uM after 48 hrs using by V-FITC/PI double-staining assay (reference value: 0.481%); assay type: functional
SMMC-7721 [22] = assay: Induction of apoptosis in human SMMC7721 cells assessed as viable cells at 3 uM after 48 hrs using by V-FITC/PI double-staining assay (reference value: 92.9%); assay type: functional; conditions: SMMC-7721, 48 h, read-out: Activity
SMMC-7721 [23] = assay: Induction of apoptosis in human SMMC7721 cells assessed as necrotic cells at 3 uM after 48 hrs using by V-FITC/PI double-staining assay (reference value: 4.90%); assay type: functional

## CC(c1ccc2oc3ccccc3c2c1)n1c[n+](CC(=O)c2ccccc2)c2ccccc21 (configuration not stated)
SMMC-7721 [1]
  pIC50: 5.07
SW480
  pIC50: 4.84
A549
  pIC50: 4.74
MCF7
  pIC50: 4.90
HL-60
  pIC50: 5.61

## O=C(C[n+]1cn(C(c2ccccc2)c2ccc3oc4ccccc4c3c2)c2ccccc21)c1ccc2ccccc2c1.[Br-] (configuration not stated)
SMMC-7721 [2]
  Activity: 0.75%
SMMC-7721 [3]
  Activity: Dose-dependent effect
SMMC-7721 [4]
  Activity: 4.96%
SMMC-7721 [5]
  Activity: 17.8%
SMMC-7721 [6]
  Activity: 26.8%
SMMC-7721 [7]
  Activity: 80.14%
SMMC-7721 [8]
  Activity: 67.74%
SMMC-7721 [9]
  Activity: 50.8%
SMMC-7721 [10]
  Activity: 7.6%
SMMC-7721 [11]
  Activity: 43.6%
SMMC-7721 [12]
  Activity: 11.9%
SMMC-7721 [13]
  Activity: 40.1%
SMMC-7721 [14]
  viability at 9 µM: 39.2%
SMMC-7721 [15]
  Activity: 8.76%
SMMC-7721 [16]
  Activity: 28.6%
SMMC-7721 [17]
  Activity: 13.8%
SMMC-7721 [18]
  viability at 6 µM: 53.4%
SMMC-7721 [19]
  Activity: 4.21%
SMMC-7721 [20]
  Activity: 3.46%
SMMC-7721 [21]
  Activity: 5.37%
SMMC-7721 [22]
  viability at 3 µM: 90.1%
SMMC-7721 [23]
  Activity: 1.06%
SMMC-7721 [1]
  pIC50: 5.54
SW480
  pIC50: 5.44
A549
  pIC50: 5.45
MCF7
  pIC50: 5.98
HL-60
  pIC50: 6.03

## Cc1n(C(c2ccccc2)c2ccc3oc4ccccc4c3c2)cc[n+]1CC(=O)c1ccc(Br)cc1 (configuration not stated)
SMMC-7721 [1]
  pIC50: 5.41
SW480
  pIC50: 5.70
A549
  pIC50: 5.02
MCF7
  pIC50: 5.46
HL-60
  pIC50: 5.65

## CC(c1ccc2oc3ccccc3c2c1)n1cc[n+](CC(=O)c2ccc3ccccc3c2)c1 (configuration not stated)
SMMC-7721 [1]
  pIC50: 5.19
SW480
  pIC50: 5.43
A549
  pIC50: 5.07
MCF7
  pIC50: 5.46
HL-60
  pIC50: 5.61

## CC(c1ccc2oc3ccccc3c2c1)n1cc[n+](CC(=O)c2ccc(O)cc2)c1 (configuration not stated)
SMMC-7721 [1]
  pIC50: < 4.40
SW480
  pIC50: < 4.40
A549
  pIC50: < 4.40
MCF7
  pIC50: < 4.40
HL-60
  pIC50: < 4.40

## CC(c1ccc2oc3ccccc3c2c1)n1cc[n+](CC(=O)c2ccc(Br)cc2)c1 (configuration not stated)
SMMC-7721 [1]
  pIC50: 4.96
SW480
  pIC50: 5.16
A549
  pIC50: 4.86
MCF7
  pIC50: 5.39
HL-60
  pIC50: 5.53

## CCCC[n+]1ccn(C(c2ccccc2)c2ccc3oc4ccccc4c3c2)c1C (configuration not stated)
SMMC-7721 [1]
  pIC50: 4.88
SW480
  pIC50: 4.55
A549
  pIC50: 4.67
MCF7
  pIC50: 4.92
HL-60
  pIC50: 5.42
